How the values were obtained:
Format in all cases: cell-based, human
[1] = test system: LN229 (established GBM line); assay: Drug screening of LN229 tumor foci on OBSCs
Protocol: (§1) Tumor cells (0.17 μL, 25,000 cells) were seeded onto OBSCs 2h after slicing, with one tumor seeded in the center of each hemisphere for a total of two tumor foci per OBSC. BSM was changed 24h after slicing. Fluorescence images were taken 0 h, 24 h, and 96 h post-seeding for normalization of tumor size. Bioluminescence readouts were also taken at 0 h, 24 h, and 96 h post seeding for assessment of cell viability. Luciferin was added underneath the culture insert and allowed to incubate for 10 min before bioluminescence measurement on an AMI optical imaging system.
(§2) Tumor cells were seeded onto OBSCs 2h after slicing as described above. One day after tumor seeding, six concentrations of each drug were diluted in the media underneath each culture insert, or XRad was applied using an X-Rad 320 Precision X-ray machine (n = 4 tumor foci per concentration; n ≥ 24 tumor foci per drug per cell line). Three days after treatment, the bioluminescence of live tumor cells was measured using an AMI optical imager (Spectral Instruments) and dose-response curves were generated. Tumor survival was normalized to day one tumor fluorescence and compared to an untreated control group.
(§3) Several weighted parameters were factored into an overall drug sensitivity score.
(§4) For DSS parameters 1–6, therapeutic windows were calculated by comparing OBSC toxicity and tumor response at the doses where tumor kill passed through the DSS parameter (Table S1 and S3). For DSS parameter 7, the therapeutic window was calculated by comparing the slopes through the tumor EC50 and the OBSC tox EC50. For DSS parameter 8, the therapeutic window was calculated by comparing the areas under tumor kill and OBSC tox curves. Normalized therapeutic window ratios for DSS parameters 1–8 within each drug-tumor-OBSC interaction were calculated in the following manner: within each window, values ranged from +1 to −1, where values approaching +1 signify increasing tumor kill relative to normal tissue toxicity, and values approaching −1 indicate agents where tumors remained highly viable while toxicity to the normal OBSC tissue was elevated. DSS parameters 9–11 were determined based on the behavior of the tumor in response to the drug, as defined above.
(§5) All individually weighed parameters were added together to generate the DSS. Overall DSS from 0 to 100 signify increasing efficacy in tumor kill relative to OBSC toxicity, while scores from 0 to −100 describe scenarios in which tumors thrive more effectively than OBSCs for a given treatment. Dose-response values were calculated via linear interpolation of raw data, not from best-fit curve equations.

[2] = test system: 7 cell lines (MB231Br, LN229, U373WT, U373KO, GBM8, MS21, PDIPG); assay: Drug screening on OBSCs, summary over the panel of seven tumor lines; conditions: number of lines responding
Protocol: as §1, §2, §3, §4, §5

[3] = test system: MS21 (low-passage patient-derived GBM line); assay: Drug screening of MS21 tumor foci on OBSCs; conditions: MS21 on OBSCs
Protocol: as §1, §2, §3, §4, §5

[4] = test system: PIS patient tumor tissue (intracranial sarcoma); assay: Drug screening of uncultured patient tumor tissue PIS on OBSCs; conditions: PIS patient tissue; scale -100 to +100
Protocol: as §2
To engraft onto OBSCs, the cryopreserved/thawed or fresh brain tumor tissue was filtered through a 100 μm cell strainer. Each 50 mg of tissue was transfected with 1mL mcherry-FLuc Lentivirus at 1.5e7 vg/ml with 1μL polybrene for 4h at 37°C. After incubation, the brain tumor tissue was washed with PBS three times to remove the residual virus and reconstituted in PBS with a final volume of 150 μL. Then the tissue solution was engrafted atop OBSCs at ∼0.5 mg tissue in 3 μL of PBS on each hemisphere of the slice. The OBSC engrafted with patient tumor tissue was incubated at 37°C with 5% CO2 and 95% humidity. The BSM was changed after 24h and subsequently every 3 days. Tumor treatment studies were executed as described above for tumor lines. The viability of the patient tissue was measured by an AMI optical imaging system with the addition of 1.5 mg/mL luciferin underneath the culture insert.
as §3, §4, §5

[5] = test system: PDIPG (low-passage pediatric patient-derived line); assay: Drug screening of PDIPG tumor foci on OBSCs; conditions: PDIPG on OBSCs
Protocol: as §1, §2, §3, §4, §5

[6] = test system: GBM8 (high-passage patient-derived GBM line); assay: Drug screening of GBM8 tumor foci on OBSCs; conditions: GBM8 on OBSCs
Protocol: as §1, §2, §3, §4, §5

[7] = test system: U373KO (RAD18 knockout of U373WT via CRISPR); assay: Drug screening of U373KO tumor foci on OBSCs; conditions: U373 KO on OBSCs
Protocol: as §1, §2, §3, §4, §5

[8] = test system: U373WT (wild-type established GBM line); assay: Drug screening of U373WT tumor foci on OBSCs; conditions: U373 WT on OBSCs
Protocol: as §1, §2, §3, §4, §5

[9] = test system: MB231Br (breast cancer metastasis to brain); assay: Drug screening of MB231Br tumor foci on OBSCs; conditions: MB231BR on OBSCs
[10] = area under the dose-response curve, trapezoidal rule
[11] = dose required to kill 10% of the tumor
[12] = dose required to kill 25% of the tumor
[13] = dose required to kill 50% of the tumor
[14] = dose required to kill 75% of the tumor
[15] = dose required to kill 90% of the tumor
[16] = dose required to kill 50% of the tumor, read-out: EC50
[17] = dose required to kill 90% of the tumor, read-out: EC90

Compound: N.N.O=C([O-])C1(C(=O)[O-])CCC1.[Pt+2] [Carboplatin]
- Killing at highest dose [1]: 1.00E+00 fraction of tumor population killed
- AUC [1, 10]: 1.22E+02
- EC10 [1, 11]: 4.17 µM
- EC25 [1, 12]: 14 µM
- EC50 [1, 13]: 133 µM
- EC75 [1, 14]: 193 µM
- EC90 [1, 15]: 229 µM
- Slope ([1]; slope through the EC50): -4.20E-03
- response / killing over the 7 cell lines [2]: robust response
- Killing at highest dose [3]: 1.00E+00 fraction of tumor population killed
- AUC [3, 10]: 1.47E+02
- EC10 [3, 11]: 59.7 µM
- EC25 [3, 12]: 71.8 µM
- EC50 [3, 16]: 91.9 µM
- EC75 [3, 14]: 157 µM
- EC90 [3, 17]: 215 µM
- Slope ([3]; slope through the EC50): -1.24E-02
- DSS (drug sensitivity score) [4]: 88
- Killing at highest dose [5]: 1.00E+00 fraction of tumor population killed
- AUC [5, 10]: 1.79E+02
- EC10 [5, 11]: 4.76 µM
- EC25 [5, 12]: 20 µM
- EC50 [5, 16]: 86.1 µM
- EC75 [5, 14]: 211 µM
- EC90 [5, 17]: 583 µM
- Slope ([5]; slope through the EC50): -3.59E-03
- Killing at highest dose [6]: 1.00E+00 fraction of tumor population killed
- AUC [6, 10]: 1.03E+01
- EC10 [6, 11]: 1.16 µM
- EC25 [6, 12]: 2.91 µM
- EC50 [6, 16]: 5.81 µM
- EC75 [6, 14]: 8.72 µM
- EC90 [6, 17]: 26 µM
- Slope ([6]; slope through the EC50): -8.60E-02
- Killing at highest dose [7]: 9.99E-01 fraction of tumor population killed
- AUC [7, 10]: 1.92E+02
- EC10 [7, 11]: 9.09 µM
- EC25 [7, 12]: 125 µM
- EC50 [7, 13]: 172 µM
- EC75 [7, 14]: 219 µM
- EC90 [7, 15]: 248 µM
- Slope ([7]; slope through the EC50): -5.29E-03
- Killing at highest dose [8]: 1.00E+00 fraction of tumor population killed
- AUC [8, 10]: 3.11E+02
- EC10 [8, 11]: 93.2 µM
- EC25 [8, 12]: 103 µM
- EC50 [8, 13]: 176 µM
- EC75 [8, 14]: 250 µM
- EC90 [8, 15]: 700 µM
- Slope ([8]; slope through the EC50): -3.40E-03
- Killing at highest dose [9]: 1.00E+00 fraction of tumor population killed
- AUC [9, 10]: 1.89E+02
- EC10 [9, 11]: 117 µM
- EC25 [9, 12]: 119 µM
- EC50 [9, 13]: 122 µM
- EC75 [9, 14]: 125 µM
- EC90 [9, 15]: 213 µM
- Slope ([9]; slope through the EC50): -8.00E-02

Source: PMC10313921, “A living ex vivo platform for functional, personalized brain cancer diagnosis” (Cell Reports Medicine, 2023)
